Measurements: article PMC4626104, “Inhibition on Proteasome β1 Subunit Might Contribute to the Anti-Cancer Effects of Fangchinoline in Human Prostate Cancer Cells” (PLoS ONE, 2015)

Experiments:
[1] = target: T1, recombinant human proteasome β1 subunit (Homo sapiens, UniProt P28072); assay: Surface plasmon resonance (Biacore) binding assay
T1 construct: His-Tag; made in house; host or cells: Escherichia coli
T1 sequence (P28072 1-239): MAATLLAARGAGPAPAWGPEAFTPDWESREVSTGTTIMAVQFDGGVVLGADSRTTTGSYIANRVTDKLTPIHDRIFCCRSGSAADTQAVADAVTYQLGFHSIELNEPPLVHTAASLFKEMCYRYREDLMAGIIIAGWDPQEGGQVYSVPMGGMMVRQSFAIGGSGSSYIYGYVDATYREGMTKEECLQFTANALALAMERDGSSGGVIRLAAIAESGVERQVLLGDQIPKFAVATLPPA
Method: The recombinant human proteasome β1 subunit, product of PSMB6 gene, was expressed as His-Tag proteins using Escherichia coli, and then purified by affinity chromatography as reported in our previous study. The binding affinities of fangchinoline or tetrandrine to recombinant proteasome catalytic β1 subunit, were assayed in vitro using an Biacore 3000 instrument (Biacore AB, Rapsgatan 7, S-754 50 Uppsala, Sweden) as reported before. Briefly, recombinant proteasome β1 subunit protein was immobilized on a CM5 sensor chip as ligand in 11624.5 RU with N-ethyl-N’-(3-dimethylaminopropyl) carbodiimide and N-hydroxysuccinimide according to the standard primary amine-coupling procedures, and HBS-EP (10 mM HEPES, 150 mM NaCl, 3 mM EDTA, 0.005% (v/v) surfactant P20, pH 7.4) was used as the running buffer. Equilibration of the baseline was performed by a continuous flow of HBS-EP through the chip surface for 1 to 2 h. Biacore data were collected at 25°C with HBS-EP as the running buffer at a constant flow of 20 μL/min. Fangchinoline or tetradrine was serially diluted into the running buffer to 0, 2.4, 3.43, 4.90, 7.0, 10 and 20 μM. The samples were injected into the channels at a flow rate of 20 μL/min, followed by washing with the running buffer. The binding responses were recorded continuously in response units (RU) at a frequency of 1Hz as sensorgrams and presented as a function of time. The association (k a) and dissociation (k d) rate constants, the equilibrium dissociation constant ( KD=kd/ka ) were determined by analysis of the sensorgram-curves obtained at different concentrations of the compound by use of BIA evaluation software version 3.1 (Biacore) and the 1:1 Langmuir binding fitting model.

[2] = target: T1, recombinant human proteasome β1 subunit; assay: Enzyme activity of recombinant proteasome catalytic β1 subunit (Z-LLE-AMC); type: biochemical; details: 50 μM Z-LLE-AMC, 2 h incubation
Method: Briefly, catalytic activity of the recombinant human proteasome β1 subunit was assayed by adding recombinant β1 subunit protein (30 μg) to 100 μL of proteasome activity assay buffer (10 mM Tris-HCL, pH 7.8, 5 mM adenosine triphosphate, 0.5 mM dithiothreitol and 5 mM MgCL2•6H2O) containing 50 μM Z-LLE-AMC in the presence of fangchinoline or tetrandrine at different concentrations or not. The hydrolase activity of the proteasome catalytic β1 subunit could release the fluorogenic AMC component from substrate Z-LLE-AMC and the AMC release was measured after 2 h incubation using a Microplate Reader Bio-Rad 550 with excitation and emission wavelengths of 360 and 465 nm, respectively.

## COc1ccc2cc1Oc1ccc(cc1)C[C@H]1c3cc(c(OC)cc3CCN1C)Oc1c(OC)c(OC)cc3c1[C@H](C2)N(C)CC3 [tetrandrine, reference compound]
[1]; Biacore, 25°C, 1:1 Langmuir model
  Dissociation (k d): 0.0162 S^-1
[1]; Biacore, 25°C, 1:1 Langmuir model, read-out: Equilibrium dissociation (K D)
  Kd: 5.61 µM
[1]; pH 7.4, read-out: Association (k a)
  kon: 2890 M⁻¹ s⁻¹
[2]
  Inhibition of enzyme activity of recombinant proteasome β1 subunit: directly inhibit
